Results on 17 compounds are retold here after US7105547B2, “Antimicrobial 1-aryl dihydropyridone compounds” (Pharmacia and Upjohn Company, priority 2002, dated 2006).

Experiment [1] has as its system Staphylococcus aureus UC9213 (SAUR 9213). Briefly: MIC by agar dilution against Staphylococcus aureus UC9213. It is filed as cell-based. The conditions noted are these: read-out: SAUR 9213 MIC (Minimum Inhibitory Concentration). The source says: (§1) Compounds of this invention have useful activity against a variety of organisms. The in vitro activity of compounds of this invention can be assessed by standard testing procedures such as the determination of minimum inhibitory concentration (MIC) by agar dilution as described in “Approved Standard. Methods for Dilution Antimicrobial Susceptibility Tests for Bacteria That Grow Aerobically”, 3rd. ed., published 1993 by the National Committee for Clinical Laboratory Standards, Villanova, Pa., USA.
(In general: In agar dilution the substance is mixed into plates at graded concentrations.)

In a further experiment the test system is SPNE 9912. Kind of experiment: MIC by agar dilution against SPNE 9912. The conditions noted are these: Streptococcus pneumoniae, read-out: SPNE 9912 MIC (Minimum Inhibitory Concentration). The class given is cell-based.
Description: as §1

In another experiment the test system is HINF 30063. Kind of experiment: MIC by agar dilution against HINF 30063. The conditions noted are these: Haemophilus influenzae, read-out: HINF 30063 MIC (Minimum Inhibitory Concentration). It is filed as cell-based, H. influenzae.
Description: as §1

Converted amounts (≈) assume the structure as drawn. Where two headings read alike, the source gives them in different places.

As for `CCC(=O)NC[C@H]1CN(c2ccc(N3C=CC(=O)CC3)c(F)c2)C(=O)O1` [Example 4, N-{3-[3-fluoro-4-(4-oxo-3,4-dihydro-2H-pyridin-1-yl)-phenyl]-2-oxo-oxazolidin-5-ylmethyl}-propionamide], the MIC in experiment [1] was 1 µg/mL (≈ 2.77 µM); in the experiment on SPNE 9912 it was 0.5 µg/mL (≈ 1.38 µM); with HINF 30063 (HINF 30063, agar dilution) it was 2 µg/mL (≈ 5.53 µM).

For `CC(=O)NC[C@H]1CN(c2ccc(N3C=CC(=O)CC3)c(F)c2)C(=O)O1` [Example 1, N-{3-[3-fluoro-4-(4-oxo-3,4-dihydro-2H-pyridin-1-yl)-phenyl]-2-oxo-oxazolidin-5-ylmethyl}-acetamide], the MIC was 2 µg/mL (≈ 5.76 µM) in experiment [1]; 0.25 µg/mL (≈ 0.72 µM) in the experiment with SPNE 9912; 4 µg/mL (≈ 11.5 µM) in the experiment with HINF 30063 (HINF 30063, agar dilution).

In the case of `CCC(=O)NC[C@H]1CN(c2ccc(N3C=CC(=O)CC3)cc2)C(=O)O1` [Example 12, N-{2-oxo-3-[4-(4-oxo-3,4-dihydro-2H-pyridin-1-yl)-phenyl]-oxazolidin-5-ylmethyl}-propionamide], the MIC was determined as 4 µg/mL (≈ 11.6 µM) in experiment [1]; 0.5 µg/mL (≈ 1.46 µM) in the experiment with SPNE 9912; 4 µg/mL (≈ 11.6 µM) in the experiment on HINF 30063 (HINF 30063, agar dilution).

As for `O=C1C=CN(c2ccc(N3C[C@H](CNC(=S)C(F)F)OC3=O)cc2)CC1` [Example 10, 2,2-difluoro-N-{2-oxo-3-[4-(4-oxo-3,4-dihydro-2H-pyridin-1-yl)-phenyl]-oxazolidin-5-ylmethyl}-thioacetamide], the MIC in experiment [1] was found to be 1 µg/mL (≈ 2.62 µM); with SPNE 9912, 0.25 µg/mL (≈ 0.655 µM); in the experiment on HINF 30063 (HINF 30063, agar dilution), 4 µg/mL (≈ 10.5 µM).

As for `O=C1C=CN(c2c(F)cc(N3C[C@H](CNC(=O)C(F)F)OC3=O)cc2F)CC1` [Example 13, N-{3-[3,5-difluoro-4-(4-oxo-3,4-dihydro-2H-pyridin-1-yl)-phenyl]-2-oxo-oxazolidin-5-ylmethyl}-2,2-difluoro-acetamide], the MIC came out at 2 µg/mL (≈ 4.98 µM) in experiment [1]; 0.25 µg/mL (≈ 0.623 µM) in the experiment with SPNE 9912; 8 µg/mL (≈ 19.9 µM) in the experiment with HINF 30063 (HINF 30063, agar dilution).

Regarding `CC(=O)NC[C@H]1CN(c2ccc(N3C=CC(=O)CC3)cc2)C(=O)O1` [Example 9, N-{2-oxo-3-[4-(4-oxo-3,4-dihydro-2H-pyridin-1-yl)-phenyl]-oxazolidin-5-ylmethyl}-acetamide], the MIC amounted to 2 µg/mL (≈ 6.07 µM) in experiment [1]; 0.5 µg/mL (≈ 1.52 µM) in the experiment with SPNE 9912; 4 µg/mL (≈ 12.1 µM) in the experiment on HINF 30063 (HINF 30063, agar dilution).

As to `O=C1C=CN(c2ccc(N3C[C@H](CNC(=O)C(Cl)Cl)OC3=O)cc2)CC1` [Example 8, 2,2-dichloro-N-{2-oxo-3-[4-(4-oxo-3,4-dihydro-2H-pyridin-1-yl)-phenyl]-oxazolidin-5-ylmethyl}-acetamide], the MIC in experiment [1] was found to be 2 µg/mL (≈ 5.02 µM); in the experiment with SPNE 9912 it was 0.25 µg/mL (≈ 0.628 µM); with HINF 30063 (HINF 30063, agar dilution) it was 2 µg/mL (≈ 5.02 µM).

Turning to `O=C1C=CN(c2ccc(N3C[C@H](CNC(=O)C(F)F)OC3=O)cc2)CC1` [Example 11, 2,2-difluoro-N-{2-oxo-3-[4-(4-oxo-3,4-dihydro-2H-pyridin-1-yl)-phenyl]-oxazolidin-5-ylmethyl}-acetamide], the MIC was found to be 2 µg/mL (≈ 5.47 µM) in experiment [1]; 0.5 µg/mL (≈ 1.37 µM) in the experiment on SPNE 9912; 4 µg/mL (≈ 10.9 µM) with HINF 30063 (HINF 30063, agar dilution).

Turning to `O=C1C=CN(c2ccc(N3C[C@H](CNC(=O)C(F)F)OC3=O)cc2F)CC1` [Example 3, N-{3-[3-fluoro-4-(4-oxo-3,4-dihydro-2H-pyridin-1-yl)-phenyl]-2-oxo-oxazolidin-5-ylmethyl}-difluoroacetamide], the MIC in experiment [1] stood at 1 µg/mL (≈ 2.61 µM); with SPNE 9912, 0.25 µg/mL (≈ 0.652 µM); in the experiment on HINF 30063, 2 µg/mL (≈ 5.22 µM).

As to `O=C1C=CN(c2ccc(N3C[C@H](CNC(=S)C(F)F)OC3=O)cc2F)CC1` [Example 6, 2,2-difluoro-N-{3-[3-fluoro-4-(4-oxo-3,4-dihydro-2H-pyridin-1-yl)-phenyl]-2-oxo-oxazolidin-5-ylmethyl}-thioacetamide], the MIC in experiment [1] is 1 µg/mL (≈ 2.5 µM); with SPNE 9912 it was 0.125 µg/mL (≈ 0.313 µM); with HINF 30063 (HINF 30063, agar dilution), 4 µg/mL (≈ 10 µM).

As for `O=C1C=CN(c2ccc(N3C[C@H](Cn4ccnn4)OC3=O)cc2)CC1` [Example 17, 1-{4-[(5R)-2-oxo-5-(1H-1,2,3-triazol-1-ylmethyl)-1,3-oxazolidin-3-yl]phenyl}-2,3-dihydropyridin-4(1H)-one], the MIC turned out to be 1 µg/mL (≈ 2.95 µM) in experiment [1]; 1 µg/mL (≈ 2.95 µM) in the experiment with SPNE 9912; 8 µg/mL (≈ 23.6 µM) in the experiment on HINF 30063 (HINF 30063, agar dilution).

Consider `O=C1C=CN(c2ccc(N3C[C@H](CNC(=O)C(Cl)Cl)OC3=O)cc2F)CC1` [Example 5, 2,2-dichloro-N-{3-[3-fluoro-4-(4-oxo-3,4-dihydro-2H-pyridin-1-yl)-phenyl]-2-oxo-oxazolidin-5-ylmethyl}-acetamide], for which the MIC was found to be 1 µg/mL (≈ 2.4 µM) in experiment [1]; 0.25 µg/mL (≈ 0.601 µM) in the experiment on SPNE 9912; 1 µg/mL (≈ 2.4 µM) in the experiment with HINF 30063 (HINF 30063, agar dilution).

On to `COC(=O)NC[C@H]1CN(c2ccc(N3C=CC(=O)CC3)c(F)c2)C(=O)O1` [Example 7, {3-[3-fluoro-4-(4-oxo-3,4-dihydro-2H-pyridin-1-yl)-phenyl]-2-oxo-oxazolidin-5-ylmethyl}-carbamic Acid Methyl Ester], for which the MIC worked out at 2 µg/mL (≈ 5.5 µM) in experiment [1]; 0.5 µg/mL (≈ 1.38 µM) in the experiment with SPNE 9912; 8 µg/mL (≈ 22 µM) with HINF 30063 (HINF 30063, agar dilution).

For the compound `O=C1C=CN(c2ccc(N3C[C@H](Cn4ccnn4)OC3=O)cc2F)CC1` [Example 16, 1-{2-fluoro-4-[(5R)-2-oxo-5-(1H-1,2,3-triazol-1-ylmethyl)-1,3-oxazolidin-3-yl]phenyl}-2,3-dihydropyridin-4(1H)-one], the MIC in experiment [1] came out at 1 µg/mL (≈ 2.8 µM); in the experiment on SPNE 9912, 0.25 µg/mL (≈ 0.7 µM); with HINF 30063 (HINF 30063, agar dilution) it was 8 µg/mL (≈ 22.4 µM).

Consider `CC(=O)NC[C@H]1CN(c2cc(F)c(N3C=CC(=O)CC3)c(F)c2)C(=O)O1` [Example 2, N-{3-[3,5-diluoro-4-(4-oxo-3,4-dihydro-2H-pyridin-1-yl)-phenyl]-2-oxo-oxazolidin-5-ylmethyl}-acetamide], for which the MIC came to 1 µg/mL (≈ 2.74 µM) in experiment [1]; 0.5 µg/mL (≈ 1.37 µM) with SPNE 9912; 8 µg/mL (≈ 21.9 µM) in the experiment with HINF 30063 (HINF 30063, agar dilution).

For the compound `O=C1C=CN(c2c(F)cc(N3C[C@H](CNC(=O)C(Cl)Cl)OC3=O)cc2F)CC1` [Example 15, 2,2-dichloro-N-{3-[3,5-difluoro-4-(4-oxo-3,4-dihydro-2H-pyridin-1-yl)-phenyl]-2-oxo-oxazolidin-5-ylmethyl}-acetamide], the MIC in experiment [1] was 2 µg/mL (≈ 4.61 µM); in the experiment on SPNE 9912 it was 0.25 µg/mL (≈ 0.576 µM); in the experiment with HINF 30063 (HINF 30063, agar dilution) it was 4 µg/mL (≈ 9.21 µM).

On to `O=C1C=CN(c2c(F)cc(N3C[C@H](CNC(=S)C(F)F)OC3=O)cc2F)CC1` [Example 14, N-{3-[3,5-difluoro-4-(4-oxo-3,4-dihydro-2H-pyridin-1-yl)-phenyl]-2-oxo-oxazolidin-5-ylmethyl}-2,2-difluoro-thioacetamide], for which the MIC amounted to 0.5 µg/mL (≈ 1.2 µM) in experiment [1]; 0.25 µg/mL (≈ 0.599 µM) in the experiment with SPNE 9912; 8 µg/mL (≈ 19.2 µM) in the experiment on HINF 30063 (HINF 30063, agar dilution).
